# Patent EP0346760A2, “Derivatives of nigericine, methods for their preparation, compositions containing them and their use” (priority 1988, dated 1989)
# System: Staph. aureus (285)
# Test: Agar dilution test (Lorian), antibacterial activity
# Type: cell-based
# Conditions: Staphylococcus aureus; Staph. aureus (285); Müller Hinton Agar, 16 to 18 h at 37°C; read-out: MIC
# Method: (§1) Die antibakterielle Wirksamkeit der erfindungsgemäßen Verbindungen wurde im Agar-Verdünnungstest nach Lorian (Antibiotics in Laboratory Medicine, Williams & Wilkins, Baltimore/London, 1980) bestimmt. Dabei wurden die Präparate in einer geometrischen Verdünnungsreihe mit dem Faktor 2 in Müller Hinton Agar verdünnt. Eine Petrischale enthielt nur Müller Hinton Agar und diente zur Kontrolle des Bakterienwachstums. Die Petrischalen wurden dann mit einem Denley-Multipoint-Inokulator, welcher 0,6 µl einer 1 : 100 verdünnten 18-Stunden-Kultur der Testbakterien übertrug, mit den entsprechenden Testbakterien beimpft. Nach 16 bis 18 Stunden Inkubation bei 37°C wurden die Petrischalen makroskopisch auf Bakterienwachstum untersucht.
# (§2) Die niedrigste Konzentration der erfindungsgemäßen Verbindungen, welche das Bakterienwachstum noch vollständig verhinderte, wurde als MIC (Minimum Inhibitory Concentration) angenommen.
# (§3) In Tabelle 3 ist die Wirkung (Angabe des MIC in µg/ml) von verschiedenen erfindungsgemäßen Verbindungen gegen folgende Bakterien aufgeführt: Staph. aureus (SG 511), Staph. aureus (285), Staph. aureus (503), Strept. pyogenes (308 A), Strept. pyogenes (77 A), Strept. faecium (D). Tabelle 3
row,SMILES,MIC [µg/mL]
1,COC1CC(CC2CCC(C)C(C(C)C(=O)O)O2)OC2(OC(C)(C3CCC(C)(C4OC(C5OC(O)(CBr)C(C)CC5C)CC4C)O3)CC2C)C1C (stereo not drawn) [Beispiel 3],0.013
2,COC1CC(CC2CCC(C)C(C(C)C(=O)O)O2)OC2(OC(C)(C3CCC(C)(C4OC(C5OC(O)(C[N+](=O)[O-])C(C)CC5C)CC4C)O3)CC2C)C1C (stereo not drawn) [Beispiel 5],0.049

# System: Staph. aureus (503)
# Test: as above
# Type: cell-based
# Conditions: Staphylococcus aureus; Staph. aureus (503); Müller Hinton Agar, 16 to 18 h at 37°C; read-out: MIC
# Method: as §1, §2, §3
row,SMILES,MIC [µg/mL]
1,COC1CC(CC2CCC(C)C(C(C)C(=O)O)O2)OC2(OC(C)(C3CCC(C)(C4OC(C5OC(O)(CBr)C(C)CC5C)CC4C)O3)CC2C)C1C (stereo not drawn) [Beispiel 3],0.007
2,COC1CC(CC2CCC(C)C(C(C)C(=O)O)O2)OC2(OC(C)(C3CCC(C)(C4OC(C5OC(O)(C[N+](=O)[O-])C(C)CC5C)CC4C)O3)CC2C)C1C (stereo not drawn) [Beispiel 5],0.025

# System: Staph. aureus (SG 511)
# Test: as above
# Type: cell-based
# Conditions: Staphylococcus aureus; Staph. aureus (SG 511); Müller Hinton Agar, 16 to 18 h at 37°C; lowest concentration that completely prevents growth; read-out: MIC
# Method: as §1, §2, §3
row,SMILES,MIC [µg/mL]
1,COC1CC(CC2CCC(C)C(C(C)C(=O)O)O2)OC2(OC(C)(C3CCC(C)(C4OC(C5OC(O)(CBr)C(C)CC5C)CC4C)O3)CC2C)C1C (stereo not drawn) [Beispiel 3],0.013
2,COC1CC(CC2CCC(C)C(C(C)C(=O)O)O2)OC2(OC(C)(C3CCC(C)(C4OC(C5OC(O)(C[N+](=O)[O-])C(C)CC5C)CC4C)O3)CC2C)C1C (stereo not drawn) [Beispiel 5],0.049

# System: Strept. faecium (D)
# Test: as above
# Type: cell-based
# Conditions: Enterococcus faecium; Strept. faecium (D); Müller Hinton Agar, 16 to 18 h at 37°C; read-out: MIC
# Method: as §1, §2, §3
row,SMILES,MIC [µg/mL]
1,COC1CC(CC2CCC(C)C(C(C)C(=O)O)O2)OC2(OC(C)(C3CCC(C)(C4OC(C5OC(O)(CBr)C(C)CC5C)CC4C)O3)CC2C)C1C (stereo not drawn) [Beispiel 3],0.098
2,COC1CC(CC2CCC(C)C(C(C)C(=O)O)O2)OC2(OC(C)(C3CCC(C)(C4OC(C5OC(O)(C[N+](=O)[O-])C(C)CC5C)CC4C)O3)CC2C)C1C (stereo not drawn) [Beispiel 5],0.098

# System: Strept. pyogenes (308 A)
# Test: as above
# Type: cell-based
# Conditions: Streptococcus pyogenes; Strept. pyogenes (308 A); Müller Hinton Agar, 16 to 18 h at 37°C; read-out: MIC
# Method: as §1, §2, §3
row,SMILES,MIC [µg/mL]
1,COC1CC(CC2CCC(C)C(C(C)C(=O)O)O2)OC2(OC(C)(C3CCC(C)(C4OC(C5OC(O)(CBr)C(C)CC5C)CC4C)O3)CC2C)C1C (stereo not drawn) [Beispiel 3],< 0.002
2,COC1CC(CC2CCC(C)C(C(C)C(=O)O)O2)OC2(OC(C)(C3CCC(C)(C4OC(C5OC(O)(C[N+](=O)[O-])C(C)CC5C)CC4C)O3)CC2C)C1C (stereo not drawn) [Beispiel 5],0.004

# System: Strept. pyogenes (77 A)
# Test: as above
# Type: cell-based
# Conditions: Streptococcus pyogenes; Strept. pyogenes (77 A); Müller Hinton Agar, 16 to 18 h at 37°C; read-out: MIC
# Method: as §1, §2, §3
row,SMILES,MIC [µg/mL]
1,COC1CC(CC2CCC(C)C(C(C)C(=O)O)O2)OC2(OC(C)(C3CCC(C)(C4OC(C5OC(O)(CBr)C(C)CC5C)CC4C)O3)CC2C)C1C (stereo not drawn) [Beispiel 3],< 0.002
2,COC1CC(CC2CCC(C)C(C(C)C(=O)O)O2)OC2(OC(C)(C3CCC(C)(C4OC(C5OC(O)(C[N+](=O)[O-])C(C)CC5C)CC4C)O3)CC2C)C1C (stereo not drawn) [Beispiel 5],0.004

# System: Adeno 5
# Test: not given
# Type: cell-based
# Conditions: HeLa or Vero cells, 72 h CPE, concentration at which about 50 % of the cells survive the infection
row,SMILES,MHK
1,COC1CC(CC2CCC(C)C(C(C)C(=O)O)O2)OC2(OC(C)(C3CCC(C)(C4OC(C5OC(O)(CBr)C(C)CC5C)CC4C)O3)CC2C)C1C (stereo not drawn) [Beispiel 3],"0,01 µg/ml"

# System: Herpes I
# Test: not given
# Type: cell-based
# Conditions: HeLa or Vero cells, 72 h CPE, about 50 % of the cells survive
row,SMILES,MHK
1,COC1CC(CC2CCC(C)C(C(C)C(=O)O)O2)OC2(OC(C)(C3CCC(C)(C4OC(C5OC(O)(CBr)C(C)CC5C)CC4C)O3)CC2C)C1C (stereo not drawn) [Beispiel 3],"0,01 µg/ml"

# System: Herpes II
# Test: not given
# Type: cell-based
# Conditions: HeLa or Vero cells, 72 h CPE, about 50 % of the cells survive
row,SMILES,MHK
1,COC1CC(CC2CCC(C)C(C(C)C(=O)O)O2)OC2(OC(C)(C3CCC(C)(C4OC(C5OC(O)(CBr)C(C)CC5C)CC4C)O3)CC2C)C1C (stereo not drawn) [Beispiel 3],"0,3 µg/ml"

# System: Influenza A
# Test: not given
# Type: cell-based
# Conditions: HeLa or Vero cells, 72 h CPE, about 50 % of the cells survive
row,SMILES,MHK
1,COC1CC(CC2CCC(C)C(C(C)C(=O)O)O2)OC2(OC(C)(C3CCC(C)(C4OC(C5OC(O)(CBr)C(C)CC5C)CC4C)O3)CC2C)C1C (stereo not drawn) [Beispiel 3],"0,03 µg/ml"

# System: Rhinovirus II
# Test: not given
# Type: cell-based
# Conditions: Rhino. II; HeLa or Vero cells, 72 h CPE; about 50 % of the cells survive
row,SMILES,MHK
1,COC1CC(CC2CCC(C)C(C(C)C(=O)O)O2)OC2(OC(C)(C3CCC(C)(C4OC(C5OC(O)(CBr)C(C)CC5C)CC4C)O3)CC2C)C1C (stereo not drawn) [Beispiel 3],"0,3 µg/ml"

# System: HeLa- bzw. Vero-Zellen
# Test: Maximum tolerated dose (DTM) in cell culture
# Type: cell-based
# Conditions: HeLa or Vero cells
# Method: Die Prüfsubstanzen wurden in Zellkulturmedium (Dulbecco's MEM) gelöst und in einer geometrischen Verdünnungsreihe, Faktor 3, in Standard-Mikrotiterplatten in 100 µl Zellkulturmedium vorgelegt. Anschließend erfolgte die Zugabe von 100 µl einer Suspension von HeLa- bzw. Vero-Zellen in Medium mit 5 % fötalem Kälberserum in einer Zelldichte von 2 x 10⁵ Zellen/ml. Die Ansätze wurden mit 50 µl einer Suspension des jeweiligen Test-Virus infiziert, die so eingestellt war, daß die Zellen innerhalb von 72 h einen cytopathogenen Effekt (CPE) zeigten. Die Auswertung erfolgte durch mikroskopische Begutachtung des Zellrasens und photometrische Messung der Neutralrotaufnahme (Farbtest nach Finter). Als MHK wurde die Konzentration des Präparats angenommen (µg/ml), bei der etwa 50 % der Zellen die Infektion überlebten.
# In Spalte 9 ist die DTM (Dosis Tolerata Maxima) in µg/ml angegeben. Tabelle 4
row,SMILES,DTM (Dosis Tolerata Maxima)
1,COC1CC(CC2CCC(C)C(C(C)C(=O)O)O2)OC2(OC(C)(C3CCC(C)(C4OC(C5OC(O)(CBr)C(C)CC5C)CC4C)O3)CC2C)C1C (stereo not drawn) [Beispiel 3],"0,89 µg/ml"
